From ChEMBL document CHEMBL5380795, “Design, Synthesis, and Bioactivity Investigation of Cyclic Lipopeptide Antibiotics Containing Eight to Nine Amino Acids” (J Med Chem, 2023)
Values after ≈ are worked out from the molar mass of the structure shown. Bridge positions count the residues as written; N and C are the ends. Square brackets hold non-standard residues; d marks the D form. Peptide text beside a SMILES is read from it. * marks the point of attachment. Decanoyl = CCCCCCCCCC(=O)*; X1 = CC[C@H](C)CCCCC(=O)*; dDab = NCC[C@@H](N)C(=O)O; Dab = NCC[C@H](N)C(=O)O

Legend:
Pseudomonas aeruginosa [1] = assay: Antibacterial activity against Pseudomonas aeruginosa; format: functional
Escherichia coli [2] = assay: Antibacterial activity against Escherichia coli; format: functional
Klebsiella pneumoniae [3] = assay: Antibacterial activity against Klebsiella pneumoniae; format: functional
Acinetobacter baumannii [4] = assay: Antibacterial activity against Acinetobacter baumannii; format: functional
Escherichia coli [5] = assay: Antibacterial activity against Escherichia coli NCTC 13353 assessed as inhibition of bacterial growth incubated for 18 to 24 hrs by broth microdilution method; format: functional; details: time 18-24 hrs
Klebsiella pneumoniae [6] = assay: Antibacterial activity against KPC producing Klebsiella pneumoniae ATCC BAA-1705 assessed as inhibition of bacterial growth incubated for 18 to 24 hrs by broth microdilution method; format: functional; details: time 18-24 hrs
Escherichia coli [7] = assay: Antibacterial activity against Escherichia coli clinical isolate 19-2 assessed as inhibition of bacterial growth incubated for 18 to 24 hrs by broth microdilution method; format: functional; details: time 18-24 hrs
Acinetobacter baumannii [8] = assay: Antibacterial activity against carbapenem resistant Acinetobacter baumannii clinical isolate 19-8 assessed as inhibition of bacterial growth incubated for 18 to 24 hrs by broth microdilution method; format: functional; details: time 18-24 hrs
Pseudomonas aeruginosa [9] = assay: Antibacterial activity against Pseudomonas aeruginosa ATCC 27853 assessed as inhibition of bacterial growth incubated for 18 to 24 hrs by broth microdilution method; format: functional; details: time 18-24 hrs
Escherichia coli [10] = assay: Antibacterial activity against Escherichia coli ATCC BAA-2523 assessed as inhibition of bacterial growth incubated for 18 to 24 hrs by broth microdilution method; format: functional; details: time 18-24 hrs
Pseudomonas aeruginosa [11] = assay: Antibacterial activity against Pseudomonas aeruginosa clinical isolate 19-1 assessed as inhibition of bacterial growth incubated for 18 to 24 hrs by broth microdilution method; format: functional; details: time 18-24 hrs
Klebsiella pneumoniae [12] = assay: Antibacterial activity against carbapenem resistant Klebsiella pneumoniae clinical isolate 19-15 assessed as inhibition of bacterial growth incubated for 18 to 24 hrs by broth microdilution method; format: functional; details: time 18-24 hrs
Pseudomonas aeruginosa [13] = assay: Antibacterial activity against carbapenem resistant Pseudomonas aeruginosa clinical isolate 19-3 assessed as inhibition of bacterial growth incubated for 18 to 24 hrs by broth microdilution method; format: functional; details: time 18-24 hrs
Klebsiella pneumoniae [14] = assay: Antibacterial activity against carbapenem resistant Klebsiella pneumoniae clinical isolate 19-17 assessed as inhibition of bacterial growth incubated for 18 to 24 hrs by broth microdilution method; format: functional; details: time 18-24 hrs
Acinetobacter baumannii [15] = assay: Antibacterial activity against oxacillinase-27 producing Acinetobacter baumannii NCTC 13304 assessed as inhibition of bacterial growth incubated for 18 to 24 hrs by broth microdilution method; format: functional; details: time 18-24 hrs
Staphylococcus aureus [16] = assay: Antibacterial activity against methicillin resistant Staphylococcus aureus ATCC 33591 assessed as inhibition of bacterial growth incubated for 18 to 24 hrs by broth microdilution method; format: functional; details: time 18-24 hrs
[17] = test system: Staphylococcus epidermidis; assay: Antibacterial activity against methicillin resistant Staphylococcus epidermidis clinical isolate 19-6 assessed as inhibition of bacterial growth incubated for 18 to 24 hrs by broth microdilution method; format: functional; details: time 18-24 hrs
Pseudomonas aeruginosa [18] = assay: Antibacterial activity against carbapenem resistant Pseudomonas aeruginosa clinical isolate 17-1 assessed as inhibition of bacterial growth incubated for 18 to 24 hrs by broth microdilution method; format: functional; details: time 18-24 hrs
Escherichia coli [19] = assay: Antibacterial activity against KPC producing Escherichia coli ATCC BAA-2340 assessed as inhibition of bacterial growth incubated for 18 to 24 hrs by broth microdilution method; format: functional; details: time 18-24 hrs
[20] = test system: Staphylococcus epidermidis; assay: Antibacterial activity against methicillin resistant Staphylococcus epidermidis clinical isolate 19-5 assessed as inhibition of bacterial growth incubated for 18 to 24 hrs by broth microdilution method; format: functional; details: time 18-24 hrs
Staphylococcus aureus [21] = assay: Antibacterial activity against Staphylococcus aureus ATCC 29213 assessed as inhibition of bacterial growth incubated for 18 to 24 hrs by broth microdilution method; format: functional; details: time 18-24 hrs
Escherichia coli [22] = assay: Antibacterial activity against Escherichia coli ATCC 25922 assessed as inhibition of bacterial growth incubated for 18 to 24 hrs by broth microdilution method; format: functional; details: time 18-24 hrs
[23] = Selectivity index, ratio of IC50 for cytotoxicity against human HK-2 cells to MIC for antibacterial activity against Escherichia coli ATCC BAA-2523; format: toxicity, cell-based
[24] = Cytotoxicity against human HK-2 cells assessed as inhibition of cell growth incubated for 72 hrs by CCK-8 assay; format: toxicity, cell-based
Pseudomonas aeruginosa [25] = assay: Antibacterial activity against Pseudomonas aeruginosa FADDI-PA070 incubated for 18 hrs by broth microdilution method; format: functional
Pseudomonas aeruginosa [26] = assay: Antibacterial activity against Pseudomonas aeruginosa FADDI-PA025 incubated for 18 hrs by broth microdilution method; format: functional
Pseudomonas aeruginosa [27] = assay: Antibacterial activity against Pseudomonas aeruginosa ATCC 27853 incubated for 18 hrs by broth microdilution method; format: functional
Pseudomonas aeruginosa [28] = assay: Antibacterial activity against Pseudomonas aeruginosa FADDI-PA060 incubated for 18 hrs by broth microdilution method; format: functional
Pseudomonas aeruginosa [29] = assay: Antibacterial activity against Pseudomonas aeruginosa FADDI-PA090 incubated for 18 hrs by broth microdilution method; format: functional

Row | Compound | MIC (Pseudomonas aeruginosa [1]) [µg/mL] | MIC (Escherichia coli [2]) [µg/mL] | MIC (Klebsiella pneumoniae [3]) [µg/mL] | MIC (Escherichia coli [5]) [µg/mL] | MIC (Klebsiella pneumoniae [6]) [µg/mL] | MIC (Escherichia coli [7]) [µg/mL] | MIC (Acinetobacter baumannii [8]) [µg/mL] | MIC (Pseudomonas aeruginosa [9]) [µg/mL] | MIC (Escherichia coli [10]) [µg/mL] | MIC (Pseudomonas aeruginosa [11]) [µg/mL] | MIC (Klebsiella pneumoniae [12]) [µg/mL] | MIC (Pseudomonas aeruginosa [13]) [µg/mL] | MIC (Klebsiella pneumoniae [14]) [µg/mL] | MIC (Acinetobacter baumannii [15]) [µg/mL] | MIC (Staphylococcus aureus [16]) [µg/mL] | MIC [17] [µg/mL] | MIC (Pseudomonas aeruginosa [18]) [µg/mL] | MIC (Escherichia coli [19]) [µg/mL] | MIC [20] [µg/mL] | MIC (Staphylococcus aureus [21]) [µg/mL] | other results
1 | CC[C@H](C)CCCCC(=O)N[C@@H](CCN)C(=O)N[C@H](C(=O)N[C@@H](CCN)C(=O)N[C@H]1CCNC(=O)[C@H]([C@@H](C)O)NC(=O)[C@H](CCN)NC(=O)[C@H](CCN)NC(=O)[C@H](CC(C)C)NC(=O)[C@@H](CC(C)C)NC(=O)[C@H](CCN)NC1=O)[C@@H](C)O (X1-[Dab]T[Dab][Dab][Dab][dL]L[Dab][Dab]T; lactam 4-C) | 0.2 (≈ 0.171 µM) | 0.05 (≈ 0.0428 µM) | 1 (≈ 0.855 µM) | – | – | – | – | – | – | – | – | – | – | – | – | – | – | – | – | – | MIC (Acinetobacter baumannii [4]): 1 µg/mL (≈ 0.855 µM)
2 | CC[C@H](C)CCCCC(=O)N[C@@H](CCN)C(=O)N[C@H](C(=O)N[C@@H](CCN)C(=O)N[C@H]1CCNC(=O)[C@H]([C@@H](C)O)NC(=O)[C@H](CCN)NC(=O)[C@H](CCN)NC(=O)[C@H](CC(C)C)NC(=O)[C@@H](Cc2ccccc2)NC(=O)[C@H](CCN)NC1=O)[C@@H](C)O (X1-[Dab]T[Dab][Dab][Dab][dF]L[Dab][Dab]T; lactam 4-C) | 0.2 (≈ 0.166 µM) | 0.05 (≈ 0.0415 µM) | 1 (≈ 0.831 µM) | 0.5 (≈ 0.415 µM) | ≤ 0.06 | ≤ 0.06 | ≤ 0.06 | 0.5 (≈ 0.415 µM) | < 0.06 | 0.25 (≈ 0.208 µM) | 0.125 (≈ 0.104 µM) | 0.125 (≈ 0.104 µM) | 0.25 (≈ 0.208 µM) | ≤ 0.06 | > 64 | 16 (≈ 13.3 µM) | 0.25 (≈ 0.208 µM) | ≤ 0.06 | 4 (≈ 3.32 µM) | > 64 | MIC (Acinetobacter baumannii [4]): 1 µg/mL (≈ 0.831 µM); MIC (Escherichia coli [22]): 0.25 µg/mL (≈ 0.208 µM)
3 | CCCCCCCCCC(=O)N[C@H](CCN)C(=O)N[C@H]1CCNC(=O)[C@H]([C@@H](C)O)NC(=O)[C@H](CCN)NC(=O)[C@H](CCN)NC(=O)[C@@H](CC(C)C)NC(=O)[C@@H](CC(C)C)NC(=O)[C@H](CCN)NC1=O | – | – | – | 64 (≈ 65.2 µM) | > 64 | 64 (≈ 65.2 µM) | > 64 | 64 (≈ 65.2 µM) | 64 (≈ 65.2 µM) | 64 (≈ 65.2 µM) | 64 (≈ 65.2 µM) | 64 (≈ 65.2 µM) | > 64 | > 64 | > 64 | 32 (≈ 32.6 µM) | 64 (≈ 65.2 µM) | 64 (≈ 65.2 µM) | 2 (≈ 2.04 µM) | > 64 | selectivity ratio [23]: 1.4; IC50 at 72 h [24]: 87.5 µg/mL (≈ 89.1 µM)
4 | CCCCCCCCCC(=O)N[C@H](CCN)C(=O)N[C@H]1CCNC(=O)[C@H]([C@@H](C)O)NC(=O)[C@H](CCN)NC(=O)[C@H](CCN)NC(=O)[C@H](CC(C)C)NC(=O)[C@@H](Cc2ccccc2)NC(=O)[C@H](CCN)NC1=O (Decanoyl-[dDab][Dab][Dab][dF]L[Dab][Dab]T; lactam 2-C) | – | – | – | – | – | – | – | – | – | – | – | – | – | – | – | – | – | – | – | – | MIC (Pseudomonas aeruginosa [25]): 0.5 µg/mL (≈ 0.492 µM); MIC (Pseudomonas aeruginosa [26]): 0.5 µg/mL (≈ 0.492 µM); MIC (Pseudomonas aeruginosa [27]): 0.5 µg/mL (≈ 0.492 µM); MIC (Pseudomonas aeruginosa [28]): 0.5 µg/mL (≈ 0.492 µM); MIC (Pseudomonas aeruginosa [29]): 0.5 µg/mL (≈ 0.492 µM)
5 | CCCCCCCCCC(=O)N[C@H](CCN)C(=O)N[C@H]1CCCNC(=O)[C@H]([C@@H](C)O)NC(=O)[C@H](CCN)NC(=O)[C@H](CCN)NC(=O)[C@H](CC(C)C)NC(=O)[C@@H](CC(C)C)NC(=O)[C@H](CCN)NC1=O | – | – | – | 32 (≈ 32.1 µM) | 16 (≈ 16.1 µM) | 16 (≈ 16.1 µM) | > 64 | 4 (≈ 4.01 µM) | 16 (≈ 16.1 µM) | 4 (≈ 4.01 µM) | 16 (≈ 16.1 µM) | 2 (≈ 2.01 µM) | 64 (≈ 64.2 µM) | > 64 | > 64 | 32 (≈ 32.1 µM) | 4 (≈ 4.01 µM) | 16 (≈ 16.1 µM) | 4 (≈ 4.01 µM) | > 64 | selectivity ratio [23]: 9.9; IC50 at 72 h [24]: 158 µg/mL (≈ 159 µM)
